According to patent US4029789A, “1-[2'-(α-Furoyl or α-thienoyl)eth-1'-yl]-2-(4"-cinnamyl piperazin-1"-yl methyl)benzimidazoles and method of using same” (Delalande S.A., priority 1974, dated 1977):
Entries after “also recorded” stand apart in the source; their conditions may differ. Where two headings read alike, the source gives them in different places.

Tests used:
gastric secretion [1] = assay: Gastric antisecretory properties, anaesthetized rat with Shay binding; assay type: in vivo; details: 2 mg/kg i.d.
Description: The compounds of formula (I), administered intraduodenally to an anaesthetized rat provided with a Shay binding are capable of reducing the gastric secretion.

[2] = tested on: morphinic respiratory depression; assay: Respiratory analeptic properties, vigil rabbit, morphinic respiratory depression; assay type: in vivo; details: for respiratory analeptic activity (in words): i.v., vigil rabbit, comparison with reference compound
Procedure: The compounds of formula (I) administered intravenously to a vigil rabbit, are capable of opposing morphinic respiratory depression (subcutaneous injection of 50 mg/kg of morphine hydrochloride).
.- Respiratory analeptic properties were studied in a vigil rabbit subjected to a morphinic respiratory depression. The products studied were administered intravenously.

gastric secretion [3] = assay: Gastric antisecretory activity, vigil rat, pyloric binding for 4 hours; assay type: in vivo; details: for gastric antisecretory properties (in words): comparison with compound No. 7110 / patent No 3 862 177; for ED50: Rattus norvegicus, 4 h, i.d.
Procedure: .- The gastric antisecretory activity was studied in a vigil rat fitted with a pyloric binding for 4 hours, according to Shay and al.
It was evaluated by diminutions in the volume, the concentration and the flow of free acid in the gastric juice. The compounds tested were administered intraduodenally.

constraint ulcers = assay: Constraint ulcers, rat, 7 hours; assay type: in vivo
Procedure: (a) Constraint ulcers: the compounds of formula (I), administered orally, reduce the area of ulcerations caused in a rat placed under constraint. Thus, compound No 73 0466 administered at a dose of 5 mg/kg/po, reduces by 78% the area of the ulcerations caused by being put under constraint for 7 hours.
(§1) .- The anti-ulcerous activity was evaluated by the percentage of protection (quantal response) against ulcers caused in a rat by binding the pylorus or by putting under constraint for 7 hours.
(§2) The products were administered intraduodenally (Shay's ulcer) or orally (constraint ulcer).

Shay's ulcers = assay: Shay's ulcers, rat, binding the pylorus; assay type: in vivo; details: for anti-ulcerous properties (in words): comparison with compound No. 7110 / patent No 3 862 177
Procedure: (b) Shay's ulcers: the compounds of formula (I) administered intraduodenally reduce the area of ulcerations induce in a rat by binding the pylorus. Thus, compound code No 73 0466 administered in a dose of 20 mg/kg/i.d. reduces by 80 % Shay's ulcer.
as §1, §2

[4] = tested on: bronchospasm caused by acetylcholine aerosol; assay: Protection of vigil guinea-pig against acetylcholine aerosol bronchospasm; assay type: in vivo
[5] = tested on: bronchoconstriction caused by acetylcholine; assay: Anti-bronchoconstriction, anaesthetized guinea-pig, acetylcholine i.v. (Konzett and Rossler); assay type: in vivo; details: for activity by route of administration: i.v. and i.d.; for anti-bronchoconstriction properties (in words): guinea-pig, comparison with compound of patent No 3 862 177; for ED50: Cavia porcellus, iv, compound i.v., read-out: DE 50 (the source's name)
Procedure: (§3) Injected intravenously or intraduodenally, the compounds of formula (I) are capable of opposing bronchoconstriction caused in a guinea-pig anaesthetized with ethylurethane at 20 % (1.5 g/kg intraperitoneally) by intravenous injection of histamine ([…]/i.v.), of acetylcholine (40 μg/kg/i.v.), of bradykinine (5 μg/kg/i.v.) or of serotinine (20 μg/kg/i.v.).
(§4) .- The anti-bronchoconstriction properties were studied in an anaesthetized guinea-pig and in a vigil guinea-pig.
(§5) The antagonism exercised by the products studied to a bronchoconstriction due to an intravenous injection of acetylcholine, histamine or bradykinine was evaluated according to Konzett and Rossler's method.
(§6) The products studied were administered intraduodenally or intravenously.

[6] = tested on: bronchoconstriction caused by histamine; assay: Anti-bronchoconstriction, anaesthetized guinea-pig, histamine i.v. (Konzett and Rossler); assay type: in vivo; details: for Percentage of inhibition of the bronchoconstriction: histamine
Procedure: as §3, §4, §5, §6

[7] = tested on: bronchospasm caused by histamine aerosol; assay: Protection of vigil guinea-pig against histamine aerosol bronchospasm; assay type: in vivo
Procedure: These properties are also observed by administering the compounds of formula (I) orally, to a vigil guinea-pig subjected to a histamine aerosol (exposition for 10 minutes to an aerosol obtained from an aqueous solution containing 0.4 % histamine and 10 % glycerine), the criterium of activity being the total protection from the fall caused by the bronchospasm.

Acute toxicity, mouse = details: in vivo
[8] = tested on: contracting effect of acetylcholine on the duodenum; assay: Spasmolytic, duodenum of rat, acetylcholine
Procedure: (§7) Compound code number 73 0457, introduced into the conserving medium, is capable of opposing the contractural action of histamine and bradykinine on the ileum of a guinea-pig, DI 50 being respectively 0.16 μg/ml and 3.1 μg/ml, prevents spasms in the uterus of a female rat induced by serotonine (DI 50= 0.8 μg/ml) and opposes the contracting effect of acetylcholine on the duodenum of a rat (DI 50= 0.8μg/ml).

[9] = tested on: contractural action of bradykinine on the ileum; assay: Spasmolytic, ileum of guinea-pig, bradykinine
Procedure: as §7

[10] = tested on: bronchoconstriction caused by bradykinine; assay: Anti-bronchoconstriction, anaesthetized guinea-pig, bradykinine i.v. (Konzett and Rossler); assay type: in vivo
Procedure: as §3, §4, §5, §6

[11] = tested on: contractural action of histamine on the ileum; assay: Spasmolytic, ileum of guinea-pig, histamine
Procedure: as §7

[12] = tested on: bronchoconstriction caused by serotonine; assay: Anti-bronchoconstriction, anaesthetized guinea-pig, serotonine i.v.; assay type: in vivo; details: Cavia porcellus, iv, compound i.v., read-out: DE 50 (the source's name)
Procedure: as §3

[13] = tested on: spasms in the uterus induced by serotonine; assay: Spasmolytic, uterus of female rat, serotonine
Procedure: as §7

[14] = acetylcholine i.v., 25 mg/kg i.d.
[15] = acetylcholine, anaesthetized guinea-pig
[16] = po, 2000 mg/kg, p.o., 2 000 mg/kg, read-out: Percentage mortality, orally
[17] = read-out: Gastric antisecretory action, Volume, D.E. 50

O=C(CCn1c(CN2CCN(CC=Cc3ccccc3)CC2)nc2ccccc21)c1cccs1 [73 0466, dimaleate of 1-[2'(α -thienoyl)eth-1'yl]-2-(4"-cinnamylpiperazin 1"ylmethyl)benzimidazole]
reduction of the volume of the gastric secretion (gastric secretion [1]): 28%
respiratory analeptic activity (in words) [2]: considerable anti-bronchoconstriction and respiratory analeptic properties
Gastric antisecretory action, Free acid concentration (gastric secretion [3]; 2 mg/kg i.d.): inactive
gastric antisecretory properties (in words) (gastric secretion [3]): lower gastric antisecretory and anti-ulcerous activities
reduction of the area of the ulcerations (constraint ulcers; 5 mg/kg p.o., constraint for 7 hours): 78%
reduction of Shay's ulcer (area of ulcerations) (Shay's ulcers; 20 mg/kg i.d.): 80%
anti-ulcerous properties (in words) (Shay's ulcers): lower gastric antisecretory and anti-ulcerous activities
percentage of animals totally protected ([4]; 50 mg/kg p.o.): 100%
Anti-bronchoconstriction action, percentage [5, 14]: 95%
Duration of anti-bronchoconstriction action [5, 14]: > 30 min
Duration ([5]; acetylcholine, 100 mg/kg i.d.): 60 min
Percentage of inhibition of the bronchoconstriction ([5]; acetylcholine, 100 mg/kg i.d.): 100%
activity by route of administration [5, 15]: active in this same test, not only when administered intravenously but intraduodenally
anti-bronchoconstriction properties (in words) [5]: considerable anti-bronchoconstriction and respiratory analeptic properties
ED50 ([6]; Cavia porcellus, histamine i.v., compound i.d., read-out: D.E. 50 (the source's name)): 25 mg/kg
Percentage of inhibition of the bronchoconstriction ([6]; 25 mg/kg i.d.): 50%
percentage of animals totally protected ([7]; 50 mg/kg p.o.): 67%
mortality (Acute toxicity, mouse; [16]): 30%

O=C(CCn1c(CN2CCN(CC=Cc3ccccc3)CC2)nc2ccccc21)c1ccco1 [73 0457, dimaleate of 1-[2'-(α-furoyl)eth-1' yl]-2-(4"-cinnamylpiperazin 1" ylmethyl) benzimidazole]
Duration of effect ([2]; 10 mg/kg i.v.): 25 min
respiratory analeptic activity (in words) [2]: considerable respiratory analeptic activity; also recorded: considerable anti-bronchoconstriction and respiratory analeptic properties
ED50 (gastric secretion [3]; read-out: Gastric antisecretory action, Free acid concentration, D.E. 50): 55 mg/kg
ED50 (gastric secretion [3]; read-out: Gastric antisecretory action, Free acid flow, D.E. 50): 15 mg/kg
ED50 (gastric secretion [3]; [17]): 11.5 mg/kg
gastric antisecretory properties (in words) (gastric secretion [3]): lower gastric antisecretory and anti-ulcerous activities
Anti-ulcerous action, Shay's ulcer (percentage of protection, quantal response) (Shay's ulcers; 50 mg/kg i.d.): 0
anti-ulcerous properties (in words) (Shay's ulcers): lower gastric antisecretory and anti-ulcerous activities
DI 50 [8]: 0.8 µg/mL
percentage of animals totally protected ([4]; 12.5 mg/kg p.o.): 50%
DI 50 [9]: 3.1 µg/mL
ED50 ([5]; acetylcholine i.v.): < 4 mg/kg
Anti-bronchoconstriction action, percentage ([5]; acetylcholine i.v., 0.0625 mg/kg i.v.): 63%
Percentage of inhibition of the bronchoconstriction ([5]; acetylcholine, 12.5 mg/kg i.d.): 70%
Duration ([5]; acetylcholine, 12.5 mg/kg i.d., Table I): > 90 min
Duration ([5]; acetylcholine, 12.5 mg/kg i.d., Table IV): > 90 min
times lower active dose than that of compound No. 7110 [5, 15]: 38 times
activity by route of administration [5, 15]: active in this same test, not only when administered intravenously but intraduodenally
anti-bronchoconstriction properties (in words) [5]: considerable anti-bronchoconstriction and respiratory analeptic properties
Percentage of inhibition of the bronchoconstriction ([6]; 12.5 mg/kg i.d.): 100%
percentage of animals totally protected ([7]; 1.56 mg/kg p.o.): 50%
Duration ([7]; 100 mg/kg p.o.): > 6 h
Percentage of inhibition of the bronchoconstriction ([7]; 100 mg/kg p.o.): 100%
Percentage of inhibition of the bronchoconstriction ([10]; bradykinine, 8 mg/kg i.v.): 75%
mortality (Acute toxicity, mouse; iv, 48 mg/kg, i.v., at 48 ± 2.5 mg/kg, read-out: Percentage mortality, intravenously): ~50%
LD50 (Acute toxicity, mouse; iv, read-out: Dose administered (mouse), intravenously, DE 50): 48 ± 2.5 mg/kg
mortality (Acute toxicity, mouse; [16]): 0%
DI 50 [11]: 0.16 µg/mL
ED50 [12]: < 4 mg/kg
DI 50 [13]: 0.8 µg/mL

prethcamide [MICORENE, reference compound]
Duration of effect ([2]; 10 mg/kg i.v.): 7 min

O=C(CCn1c(CN2CCN(CC=Cc3ccccc3)CC2)nc2ccccc21)c1ccccc1 [7 110, reference compound]
Duration of effect ([2]; 4 mg/kg i.v.): 0 min
Percentage increase, respiratory amplitude ([2]; 4 mg/kg i.v.): 0%
Percentage increase, respiratory frequency ([2]; 4 mg/kg i.v.): 0%
ED50 (gastric secretion [3]; [17]): 2.5 mg/kg
ED50 (constraint ulcers; Rattus norvegicus, po, 7 h, p.o., read-out: Anti-ulcerous action, Constraint ulcer for 7 hours, D.E. 50): 4.2 mg/kg
ED50 (Shay's ulcers; Rattus norvegicus, i.d., read-out: Anti-ulcerous action, Shay's ulcer, D.E. 50): 28.5 mg/kg
ED50 ([5]; acetylcholine i.v.): 2.4 mg/kg
Anti-bronchoconstriction action ([5]; acetylcholine i.v., 30 mg/kg i.d.): 0
activity by route of administration [5, 15]: acts solely intravenously
ED50 ([10]; Cavia porcellus, bradykinine i.v., compound i.d., read-out: D.E. 50 (the source's name)): 30 mg/kg
mortality (Acute toxicity, mouse; po, 4800 mg/kg, p.o., 4 800 mg/kg, read-out: Acute toxicity (p.o.), percentage mortality): 30%
